Data reported in patent publication US11839623B2, “Antiviral prodrugs and formulations thereof” (BOARD OF REGENTS OF THE UNIVERSITY OF NEBRASKA, priority 2018, dated 2023).
Where “and” joins values, the source holds several entries; their conditions need not be identical. Equal entries are not always repeated.

Key:
HIV-1ADA [1] = assay: IC50 determination of ABC, MABC, PABC in MDM challenged with HIV-1ADA (RT activity); assay type: cell-based; settings: HIV-1ADA MOI 0.1, RT activity day 10, read-out: IC50 on reverse transcriptase
Procedure: (§1) Antiretroviral activities. Antiretroviral efficacy was determined by measurements of HIV reverse transcriptase (RT) activity. For IC50 determination, MDM were exposed to various concentrations (0.01-1000 nM) of ABC, MABC or PABC for 1 hour followed by challenge with HIV-1ADA at a multiplicity of infection (MOI) of 0.1 infectious particles per cell for 4 hours. Following viral challenge, cells were washed and incubated with the same concentration of drug used before infection for an additional 10 days in culture. Culture fluids were collected on day 10 for the measurement of RT activity. To assess antiretroviral efficacy, MDM were treated with 100 μM ABC, PABC or NPABC as described above for 8 hours. After treatment, cells were washed with PBS and cultured with fresh media, with half-media exchanges every other day. At 0, 4, 12 hours, and 1, 5, 10, 15 or 20 days after treatment, cells were challenged with HIV-1ADA at an MOI of 0.1 infectious particles per cell for 16 hours. After viral infection, the cells were cultured an additional 10 days with half-media exchanges every other day. Culture fluids were collected for measurement of RT activity. Cells were fixed with 4% PFA and expression of HIV-1 p24 antigen was determined by immunocytochemistry.

[2] = tested on: monocyte-derived macrophages (MDM); assay: Intracellular level of CBV-TP in MDM treated with 10 μM ABC or ABC ProTides; assay type: cell-based; settings: 10 μM drug; for maximum CBV-TP levels: 3-48 hours; for percentage decrease of intracellular CBV-TP from Cmax at 48 hours: (Cmax−Cmin)/(Cmax)*100
Procedure: (§2) Cell model for in vitro studies: Human peripheral blood monocytes were obtained and cultured as described (Gendelman, et al., J. Exp. Med. (1988) 167:1428-1441). Briefly, human peripheral blood monocytes were obtained by leukapheresis from HIV-1/2 and hepatitis B seronegative donors, followed by purification via countercurrent centrifugal elutriation. Elutriated monocytes were cultured as adherent cells in Dulbecco's […] medium (DMEM) supplemented with 10% heat-inactivated pooled human serum, 10 μg/mL ciprofloxacin, 50 μg/mL gentamicin, and 1000 U/mL recombinant macrophage colony stimulating factor. Cells were maintained at 37° C. in a 5% CO2 incubator. Seven days later, differentiated macrophages (MDM) were used for the experiments.
Intracellular level of CBV-TP of ABC and its ProTides: Intracellular levels of CBV-TP were measured as described (Balzarini, et al., FEBS Lett. (2004) 573:38-44). MDM were treated with 10 μM ABC and ABC ProTides. At 3, 6, 12, 24 and 48 hours after treatment, MDM were washed with PBS to remove excess free drug. The cells were then collected in 70% methanol. CBV-TP from MDM was extracted and quantitated by LC-MS/MS as described (Gautam, et al., J. Pharm. Biomed. Anal. (2018) 153:248-259). Sep-Pak QMA cartridges (360 mg, 37-55 μm; Waters) were used to separate CBV-TP from their mono- and di-phosphates counterparts. The QMA cartridges were conditioned with 10 ml of 500 mM KCl followed by 10 ml of 5 mM KCl. Samples were loaded onto the cartridges and washed with 15 ml of 75 mM KCl. The triphosphate fraction was eluted with 3 ml of 500 mM KCl and collected for de-phosphorylation. The pH of the TP fraction was lowered to 4.25 by adding 15 μl ammonium acetate buffer (pH 4.10 mM) per ml eluate, and dephosphorylated by adding one unit of type XA sweet potato acid phosphatase per ml eluate and incubating at 37° C. for 30 minutes. The ^15N2^13C-3TC and d4-ABC internal standard was added at this point. Samples were then loaded onto Waters OASIS® HLB cartridges (60 mg, 30 μm; Waters) pre-conditioned with 3 ml MeOH and 3 ml H2O, and washed with 3.5 ml H2O to remove salts. The nucleosides of interest were then eluted with 1.5 ml of MeOH and evaporated under vacuum. Once dry, the residue was reconstituted with a 100 μl of 25% MeOH and stored in the −20° C. freezer until the time of LC-MS/MS analyses. The LC-MS/MS system comprised of a Waters ACQUITY ultra-performance liquid chromatography (UPLC) system (Waters, Milford, Mass.) coupled to a triple quadrupole mass spectrometer with electrospray ionization (ESI) source (Waters Xevo TQ-XS). For the indirect quantification of TPs, chromatographic separation was performed with an ACQUITY UPLC using CSH analytical column (2.1×100 mm, 1.7 μm; Waters) equipped with a guard column (Waters, Milford, Mass.). Mobile phase A consisted of ammonium bicarbonate (pH 7, 7.5 mM) and mobile phase B was methanol. The flow rate was 0.25 ml/minute. […] Mobile phase B was then reset to 12% over 0.25 minutes and the column was equilibrated for 2.75 minutes before the next injection. The total run time was 13 minutes. The mass spectrometer was operated in the positive ion mode using multiple reaction monitoring (MRM). The following transitions were monitored: m/z 230→112 for 3TC, m/z 248→152 for CBV, m/z 287→191 for ABC, m/z 233→115 for the internal standard (IS) ^15N2^13C-3TC, and m/z 291→195 for IS d4-ABC. 3TC, CBV, ABC, ^15N2^13C-3TC, and d4-ABC were detected at a cone voltage of 22, 2, 4, 12, and 2 V, respectively, and a collision energy of 12, 12, 20, 10, and 20 V, respectively.

[3] = tested on: monocyte-derived macrophages (MDM); assay: Cell viability of ABC and its ProTides in MDM (CCK-8); assay type: cell-based, human
Procedure: Cell viability of ABC and its ProTides: A CCK-8 Kit was purchased from Dojindo (Rockville, Md.) and used to test cell viability after treatment with ABC and its ProTides. Briefly, MDM plated in a 96-well plate were treated with 100 μl of 0-400 μM ABC and its ProTides for 24 hours. Drug containing medium was removed and replaced with fresh medium. Ten μl of CCK-8 solution was added to each well followed by incubation of the plate for 2 hours at 37° C. The absorbance (at 450 nm) of each well was measured using a microplate reader. The cell viability was calculated according to manufacturer's instructions.

HIV-1ADA [4] = assay: Antiretroviral activity of ABC and its ProTides against HIV-1ADA in MDM (RT activity); assay type: cell-based; settings: human MDM, RT activity day 10 post infection
Procedure: as §2
Antiretroviral activity of ABC and its ProTides: The antiviral activities of native ABC and ABC ProTides against HIV-1ADA were determined in MDM as described (Singh, et al., Nanomedicine (2016) 11:1913-1927). MDM were incubated with various concentrations of ABC or ABC ProTides for 60 minutes followed by infection with HIV-1ADA at a multiplicity of infection (MOI) of 0.01 for 4 hours. […] At day 10 post infection, supernatants were collected and analyzed for HIV-1 reverse transcriptase (RT) activity (Kalter, et al., J. Clin. Microbiol. (1992) 30:993-995).

[5] = Characterization of NPABC nanoparticles (DLS, drug loading); assay type: physicochemical; settings: PABC nanocrystals
Source text: The LASER ProTide nanocrystals (NPABC, NP3TC, NPFTC and NPTFV) may be coated with either cell or tissue receptor targeted or non-targeted poloxamer 407 (P407), poloxamer 338 (P338), 1,2-distearoyl-sn-glycero-3-phosphocholine (DSPC), 1,2-distearoyl-sn-glycero-3-phosphoethanolamine-N-carboxy(polyethylene glycol)-2000 (DSPE-PEG) or polyvinyl alcohol (PVA). The nanocrystals may also be stabilized with polysorbate and polyethylene glycol surfactants. Here, a drug to surfactant ratio of 2:1 by weight was used to manufacture NPABC nanoparticles. Briefly, 1-5% (w/v) PABC and 0.5-2.5% (w/v) P407 were mixed in sterile phosphate buffer. The premixed suspensions were nanoformulated by wet milling or high-pressure homogenization at 20,000-psi until desirable size and polydispersity index were achieved. The LASER ProTide nanoformulations were characterized for particle size, polydispersity index (PDI) and zeta potential by dynamic light scattering (DLS). […] For P407-PABC nanoparticles (NPABC), the average size (diameter) was 350 nm, the PDI was 0.28, and the charge was −21.4 mV.
Nanoparticle morphology was determined by scanning electron microscopy (SEM). UPLC MS/MS was used for drug quantitation. The conversion of ABC to PABC facilitated production of stable nanocrystals with a drug loading capacity of more than 70%.

HIV-1ADA [6] = assay: Antiretroviral efficacy of ABC, PABC, NPABC in MDM challenged with HIV-1ADA (RT activity, p24); assay type: cell-based; settings: 100 μM 8 hours
Procedure: as §1, with “Culture fluids were collected for measurement of RT activity.” left out
Significant improvements in MDM antiretroviral efficacy were also observed for PABC and NPABC. […] HIV-1 p24 was not detected in the PABC or NPABC-treated groups at the measured timepoints (FIG. 6). […]

Stability assay in serum = assay type: in vitro ADME, human; settings: 37° C., 24 hours, 15 μg/ml
Procedure: Stability Assay in Serum: The experiment was carried out by adding each ProTide into 100 μl human serum to reach a final concentration of 15 μg/ml in glass vial, and duplicate samples were used for each ProTide. After incubating the samples at 37° C. with shaking for 24 hours, 900 μl of MeOH was added to stop the reaction. Samples were vortexed for 3 minutes, then centrifuged down at 16,000 g for 10 minutes. The supernatants were transfer to new 2 ml tubes and evaporated to dryness under vacuum. The samples were reconstituted using 50 μl of MeOH, vortexed for 3 minutes and centrifuged down at 16,000 g for 10 minutes. The supernatants were analyzed by HPLC for drug concentrations. For control sample (0 minute), MeOH were added first to stop the enzyme before adding the ProTides.

| Structure (SMILES) | IC50 (HIV-1ADA [1]) [nM] | maximum CBV-TP levels [2] [fmol per million cells] | CBV-TP levels at 48 hours [2] [fmol per million cells] | percentage decrease of intracellular CBV-TP from Cmax at 48 hours [2] | mitochondrial activity compared to ABC ([3]; 400 μM) | EC50 (HIV-1ADA [4]) [nM] | drug loading capacity [5] | antiretroviral activity compared to ABC (HIV-1ADA [6]) | HIV-1 p24 (HIV-1ADA [6]; challenge after 1-20 days) | cell viability difference versus ABC ([3]; all tested drug concentrations (0-400 μM)) | prodrug hydrolyzed/degraded in human serum (Stability assay in serum) |
| --- | --- | --- | --- | --- | --- | --- | --- | --- | --- | --- | --- |
| CCCCCCCCCCCCCC(=O)OCC1C=CC(n2cnc3c(NC4CC4)nc(N)nc32)C1 (stereo not shown) [MABC] | 227 |  |  |  |  |  |  |  |  |  |  |
| COC(=O)C(C)NP(=O)(OCC1C=CC(n2cnc3c(NC4CC4)nc(N)nc32)C1)Oc1ccccc1 (mixture of isomers) [M1ABC] |  | 35650 | 789 | 97% and 97.8% | differences in mitochondrial activity were seen | 1.8 |  |  |  |  |  |
| CCCCCCCCCCCCCCCCCCCCCCOC(=O)C(Cc1ccccc1)NP(=O)(OCC1C=CC(n2cnc3c(NC4CC4)nc(N)nc32)C1)Oc1ccccc1 (mixture of isomers) [PABC] | 20.5 |  |  |  |  |  | more than 70% | enhanced antiretroviral activity | not detected |  |  |
| CCCCCCCCCCCCCCCCCCCCCCOC(=O)C(Cc1ccccc1)NP(=O)(OCC1C=CC(n2cnc3c(NC4CC4)nc(N)nc32)C1)Oc1ccccc1 (mixture of isomers) [M3ABC] |  | 541 | 230 | 57% and 57.3% |  | 7 |  |  |  | No significant differences | Nineteen percent |
